One molecule from ChEMBL document CHEMBL1130012 (J Med Chem, 1997) can be followed below.

Assay [1] concerns the target T1, Muscarinic acetylcholine receptor M2 (Rattus norvegicus, UniProt P10980).
T1 sequence (P10980 whole entry): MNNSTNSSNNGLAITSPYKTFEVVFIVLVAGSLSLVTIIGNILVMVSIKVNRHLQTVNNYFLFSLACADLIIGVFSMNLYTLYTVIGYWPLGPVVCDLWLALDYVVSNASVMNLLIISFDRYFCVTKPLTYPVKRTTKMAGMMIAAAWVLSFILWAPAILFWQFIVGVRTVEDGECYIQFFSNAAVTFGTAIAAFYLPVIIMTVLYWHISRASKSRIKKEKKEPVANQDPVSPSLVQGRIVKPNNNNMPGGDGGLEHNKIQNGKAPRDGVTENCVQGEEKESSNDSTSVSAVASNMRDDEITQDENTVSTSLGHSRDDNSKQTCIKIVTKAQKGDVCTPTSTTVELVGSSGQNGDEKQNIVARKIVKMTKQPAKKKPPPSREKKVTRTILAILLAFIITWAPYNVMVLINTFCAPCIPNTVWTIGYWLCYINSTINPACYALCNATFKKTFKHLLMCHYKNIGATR
In words: Binding affinity towards rat Muscarinic acetylcholine receptor M2 was determined.

In assay [2] the target is T2, Muscarinic acetylcholine receptor M1 (Rattus norvegicus, UniProt P08482).
T2 sequence (P08482 whole entry): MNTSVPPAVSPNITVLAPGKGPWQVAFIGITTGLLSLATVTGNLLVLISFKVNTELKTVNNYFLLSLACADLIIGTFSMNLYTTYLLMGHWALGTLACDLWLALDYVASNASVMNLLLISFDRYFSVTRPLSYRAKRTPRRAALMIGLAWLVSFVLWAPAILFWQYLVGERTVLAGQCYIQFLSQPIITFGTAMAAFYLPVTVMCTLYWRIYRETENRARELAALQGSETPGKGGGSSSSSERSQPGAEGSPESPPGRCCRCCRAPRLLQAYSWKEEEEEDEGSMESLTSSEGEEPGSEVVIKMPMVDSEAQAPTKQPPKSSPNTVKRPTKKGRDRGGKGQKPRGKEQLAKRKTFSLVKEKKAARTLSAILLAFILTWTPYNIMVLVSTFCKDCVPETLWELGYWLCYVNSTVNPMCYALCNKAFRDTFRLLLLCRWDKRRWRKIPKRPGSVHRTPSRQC
The assay is described as follows: Binding affinity towards rat Muscarinic acetylcholine receptor M1 was determined.

Assay [3] concerns the target Muscarinic acetylcholine receptor M3 (Rattus norvegicus) (UniProt P08483). The assay is described as follows: Binding affinity towards Muscarinic acetylcholine receptor M3 was determined in rat pancreas.

Sequence of Muscarinic acetylcholine receptor M3 (Rattus norvegicus) (P08483 whole entry, looked up): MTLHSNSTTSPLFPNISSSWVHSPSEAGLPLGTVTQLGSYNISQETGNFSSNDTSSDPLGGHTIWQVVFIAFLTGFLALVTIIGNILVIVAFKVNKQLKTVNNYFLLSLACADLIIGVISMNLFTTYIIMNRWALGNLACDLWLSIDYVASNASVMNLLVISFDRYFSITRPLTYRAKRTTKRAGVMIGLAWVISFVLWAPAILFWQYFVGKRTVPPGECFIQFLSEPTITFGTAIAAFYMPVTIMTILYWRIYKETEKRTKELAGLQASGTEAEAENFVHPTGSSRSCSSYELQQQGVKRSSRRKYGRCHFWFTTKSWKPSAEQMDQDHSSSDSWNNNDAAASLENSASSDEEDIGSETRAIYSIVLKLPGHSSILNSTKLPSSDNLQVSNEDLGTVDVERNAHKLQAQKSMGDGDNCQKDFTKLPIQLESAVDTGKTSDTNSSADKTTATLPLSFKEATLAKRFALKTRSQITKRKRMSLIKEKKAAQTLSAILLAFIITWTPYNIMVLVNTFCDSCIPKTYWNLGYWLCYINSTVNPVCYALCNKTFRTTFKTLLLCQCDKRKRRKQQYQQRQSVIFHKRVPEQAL

Consider `C[N+]12CCC(CC1)[C@@H](OC(=O)C(O)(c1ccccc1)c1ccccc1)C2`, for which the Ki turned out to be 0.43 nM in assay [1], 0.13 nM in assay [2] and 0.65 nM in assay [3].
